From the supplement of paper PMC9013687
± gives the standard deviation of the averaged measurements.

Assays:
Danio rerio embryo [1] = assay: EC50 Pericard size_Increase
Description: (§1)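 Zebrafish embryos (UFZ-OBI strain) were exposed from 2 hpf for 48 h (2 dpf) or 96 h (4 dpf) at 28 °C; spontaneous tail coiling was scored at 25 hpf. Morphological features from automated image analysis (FishInspector), heart rate and locomotor response were fitted with drc models. Quantal endpoints were dichotomised at 2.5 SD from controls and fitted with a log-logistic model; heart rate, pigmentation and STC were normalised to the replicate control mean. Betamethasone was tested as betamethasone dipropionate, diflorasone as diflorasone diacetate.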

Danio rerio embryo [2] = assay: EC10 Eye-jaw distance_Decrease; higher = less potent; settings: exposure time: 4 dpf
Description: as §1

Danio rerio embryo [3] = system: Danio rerio embryo
Description: as §1

Danio rerio embryo [4] = assay: EC10 Any effect; higher = less potent; settings: exposure time: 2 dpf
Description: as §1

Danio rerio embryo [5] = assay: EC20 Pigmentation decrease; higher = less potent; settings: exposure time: 4 dpf
Description: as §1

Danio rerio embryo [6] = assay: EC10 Pericard size_Increase; higher = less potent; settings: exposure time: 2 dpf
Description: as §1

Danio rerio embryo [7] = assay: EC50 Eye-jaw distance_Decrease; settings: exposure time: 4 dpf
Description: as §1

Danio rerio embryo [8] = assay: EC20 Any effect; higher = less potent
Description: as §1

Danio rerio embryo [9] = assay: spontaneous tail coiling frequency (coils/min/embryo); higher = more spontaneous movement; settings: 25 hpf
Description: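 Spontaneous tail coilings of zebrafish embryos exposed from 2 hpf were recorded at 24-25 hpf in 1-min videos and detected by a KNIME workflow from grey-value variance. Betamethasone was tested as the dipropionate, diflorasone as the diacetate.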

Danio rerio embryo [10] = assay: EC20 Pericard size_Increase; higher = less potent
Description: as §1

Danio rerio embryo [11] = assay: EC20 Eye-jaw distance_Decrease; higher = less potent; settings: exposure time: 4 dpf
Description: as §1

Danio rerio embryo [12] = assay: EC10 Pigmentation decrease; higher = less potent; settings: exposure time: 4 dpf
Description: as §1

CCC(=O)OCC(=O)[C@@]1(OC(=O)CC)[C@@H](C)C[C@H]2[C@@H]3CCC4=CC(=O)C=C[C@]4(C)[C@@]3(F)[C@@H](O)C[C@@]21C [betamethasone dipropionate]
Settings | EC20 Any effect [nM] | EC20 Pericard size Increase [nM] | EC50 Any effect [nM] | EC50 Pericard size Increase [nM] | spontaneous tail coiling frequency
Danio rerio embryo [1], exposure time: 2 dpf | – | – | – | 10100 | –
Danio rerio embryo [1], exposure time: 4 dpf | – | – | – | 1350 | –
Danio rerio embryo [3], exposure time: 2 dpf | – | – | 882 | – | –
Danio rerio embryo [3], exposure time: 4 dpf | – | – | 253 | – | –
Danio rerio embryo [8], exposure time: 2 dpf | 4.31 | – | – | – | –
Danio rerio embryo [8], exposure time: 4 dpf | 0.298 | – | – | – | –
Danio rerio embryo [9], 0.02 µM | – | – | – | – | 2.32
Danio rerio embryo [9], 0.099 µM | – | – | – | – | 1.86
Danio rerio embryo [9], 0.198 µM | – | – | – | – | 2.45
Danio rerio embryo [9], 0.991 µM | – | – | – | – | 3.42
Danio rerio embryo [9], 1.24 µM | – | – | – | – | 3.65 ± 0.45
Danio rerio embryo [9], 2.48 µM | – | – | – | – | 4 ± 0.071
Danio rerio embryo [9], 3.964 µM | – | – | – | – | 2.3
Danio rerio embryo [9], 4.95 µM | – | – | – | – | 3.4 ± 0.27
Danio rerio embryo [9], 9.909 µM | – | – | – | – | 1.97
Danio rerio embryo [9], 9.91 µM | – | – | – | – | 3.29 ± 0.34
Danio rerio embryo [9], 19.82 µM | – | – | – | – | 3.34 ± 0.88
Danio rerio embryo [10], exposure time: 2 dpf | – | 437 | – | – | –
Danio rerio embryo [10], exposure time: 4 dpf | – | 0.209 | – | – | –

Settings | EC10 Any effect [nM] | EC10 Eye-jaw distance Decrease [nM] | EC10 Pericard size Increase [nM] | EC10 Pigmentation decrease [nM] | EC20 Eye-jaw distance Decrease [nM] | EC20 Pigmentation decrease [nM] | EC50 Eye-jaw distance Decrease [nM]
Danio rerio embryo [2] | – | 3 | – | – | – | – | –
Danio rerio embryo [4] | 0.192 | – | – | – | – | – | –
Danio rerio embryo [5] | – | – | – | – | – | 8440 | –
Danio rerio embryo [6] | – | – | 70 | – | – | – | –
Danio rerio embryo [7] | – | – | – | – | – | – | 13100
Danio rerio embryo [11] | – | – | – | – | 64 | – | –
Danio rerio embryo [12] | – | – | – | 1610 | – | – | –
